Data from patent US20210115018A1, “PIPERIDINE COMPOUNDS AS COVALENT MENIN INHIBITORS” (THE REGENTS OF THE UNIVERSITY OF MICHIGAN, priority 2018, published 2021).

Test system: MV4-11
Experiment: 7-day proliferation assay (WST-8), cell growth inhibition
Assay type: cell-based
Conditions: MV4-11 cells, 7 days
Experimental: The effect of representative Compounds of the Disclosure on cell viability was determined in a 7-day proliferation assay. Cells were maintained in the appropriate culture medium with 10% FBS at 37° C. and an atmosphere of 5% CO2.
Cells were seeded in 96-well flat bottom (Corning COSTAR, Corning, NY, cat#3595) at a density of 2,000-3,000 cells/well in 100 μl of culture medium. Compounds were serially diluted in the appropriate medium, and […] the diluted compounds were added to the appropriate wells of the cell plate. After the addition of compounds, the cells were incubated at 37° C. in an atmosphere of 5% CO2 for 7 days. Cell viability was determined using the WST (2-(2-methoxy-4-nitrophenyl)-3-(4-nitrophenyl)-5-(2,4-disulfophenyl)-2H-tetrazolium, monosodium salt) Cell Counting-8 Kit (Dojindo Molecular Technologies, Inc., Rockville, Md.) according to the manufacturers' instructions.
WST-8 reagent was added to each well at a final concentration of 10% (v/v), and then the plates were incubated at 37° C. for 1-2 hours for color development. The absorbance was measured at 450 nm using a SPECTRAmax PLUS plate reader (Molecular Devices, Sunnyvale, Calif.). The readings were normalized to the DMSO-treated cells and the half maximal inhibitory concentration (IC50) was calculated by nonlinear regression (four parameters sigmoid fitted with variable slope, least squares fit, and no constraint) analysis using the GraphPad Prism 5 software (GraphPad Software, La Jolla, Calif.).

| Compound | IC50 (Homo sapiens, MV4-11, 168 h) [nM] | IC50 [nM] |
| --- | --- | --- |
| C=CC(=O)N1CCCC(S(=O)(=O)c2ccc(N3CC(F)(CN4CCC([C@@](CNC(C)=O)(c5cccc(F)c5)[C@H]5CCC[C@@H]5NC(=O)OC)CC4)C3)cc2)C1 (stereo partly drawn) [compound 149] | < 500 | – |
| C=CC(=O)N1CCC[C@@H](S(=O)(=O)c2ccc(N3CC(CN4CCC([C@@](C#N)(c5cccc(F)c5)[C@H]5CCC[C@@H]5NC(=O)OC)CC4)C3)cc2)C1 [compound 201] | < 500 | – |
| CCOC(=O)/C=C/CNC(=O)c1cccc(S(=O)(=O)c2ccc(N3CC(F)(CN4CCC([C@@](CN5CCC5)(c5cccc(F)c5)[C@H]5CCC[C@@H]5NC(=O)OC)CC4)C3)cc2)c1 [compound 119] | < 100 | – |
| C=CC(=O)N1CCCC(S(=O)(=O)c2ccc(N3CC(F)(CN4CCC([C@@](CN5CCC5)(c5cccc(F)c5)[C@H]5CCC[C@@H]5NC(=O)OC)CC4)C3)c(F)c2)C1 (stereo partly drawn) [compound 106] | – | < 50 |
| CC#CC(=O)N1CC[C@@H](S(=O)(=O)c2ccc(N3CC(CN4CCC([C@@](CN5CCC5)(c5cccc(F)c5)[C@H]5CCC[C@@H]5NC(=O)OC)CC4)C3)cc2CN2CC(F)C2)C1 [compound 210] | < 50 | – |
| CC#CC(=O)N1CC(S(=O)(=O)c2ccc(N3CC(CN4CCC([C@@](CNC(C)=O)(c5cccc(F)c5)[C@H]5CCC[C@@H]5NC(=O)OC)CC4)C3)cc2)C1 [compound 130] | < 10 | – |
| C=CC(=O)N1CCOC[C@@H](S(=O)(=O)c2ccc(N3CC(F)(CN4CCC([C@@](CNC(=O)OC)(c5cccc(F)c5)[C@H]5CCC[C@@H]5NC(=O)OC)CC4)C3)c(F)c2)C1 [compound 180] | < 100 | – |
| C=CC(=O)N1CC(S(=O)(=O)c2ccc(N3CC(F)(CN4CCC([C@@](CN5CCC5)(c5cccc(F)c5)[C@H]5CCC[C@@H]5NC(=O)OC)CC4)C3)c(F)c2)C1 [compound 93] | < 50 | – |
| CC#CC(=O)N1CC(S(=O)(=O)c2ccc(N3CC(F)(CN4CCC([C@@](CNC(C)=O)(c5cccc(F)c5)[C@H]5CCC[C@@H]5NC(=O)OC)CC4)C3)cc2CN2CC(F)C2)C1 [compound 178] | < 50 | – |
| CC#CC(=O)N1CCC[C@H](S(=O)(=O)c2ccc(N3CC(F)(CN4CCC([C@@](CN5CCC5)(c5cccc(F)c5)[C@H]5CCC[C@@H]5NC(=O)OC)CC4)C3)c(F)c2)C1 [compound 192] | < 10 | – |
| C#CC(=O)N1CC(S(=O)(=O)c2ccc(N3CC(F)(CN4CCC([C@@](CN5CCC5)(c5cccc(F)c5)[C@H]5CCC[C@@H]5NC(=O)OC)CC4)C3)c(F)c2)C1 [compound 101] | < 500 | – |
| COC(=O)N[C@H]1CCC[C@@H]1[C@](CN1CCC1)(c1cccc(F)c1)C1CCN(CC2CN(c3ccc(S(=O)(=O)[C@@H]4CCCN(C(=O)/C=C/CN5CCCCC5)C4)cc3)C2)CC1 [compound 204] | < 50 | – |
| CC#CC(=O)N1CC(S(=O)(=O)c2ccc(N3CC(CN4CCC([C@@](CNC(C)=O)(c5cccc(F)c5)[C@H]5CCC[C@@H]5NC(=O)OC)CC4)C3)cc2CN2CC(F)C2)C1 [compound 164] | < 10 | – |
| CC#CC(=O)N1CC(S(=O)(=O)c2ccc(N3CC(O)(CN4CCC([C@@](CNC(C)=O)(c5cccc(F)c5)[C@H]5CCC[C@@H]5NC(=O)OC)CC4)C3)cc2)C1 [compound 207] | < 100 | – |
| COC(=O)N[C@H]1CCC[C@@H]1[C@](CN1CCC1)(c1cccc(F)c1)C1CCN(CC2(F)CN(c3ccc(S(=O)(=O)c4cccc(C(=O)NC/C=C/S(C)(=O)=O)c4)cc3)C2)CC1 [compound 120] | < 10 | – |
| C=CC(=O)Nc1cc(S(=O)(=O)c2ccc(N3CC(F)(CN4CCC([C@@](CN5CCC5)(c5cccc(F)c5)[C@H]5CCC[C@@H]5NC(=O)OC)CC4)C3)c(F)c2)ccc1F [compound 90] | < 50 | – |
| COC(=O)N[C@H]1CCC[C@@H]1[C@](CNC(C)=O)(c1cccc(F)c1)C1CCN(CC2CN(c3ccc(S(=O)(=O)C4CN(C(=O)/C=C/CN5CCCCC5)C4)cc3)C2)CC1 [compound 129] | < 10 | – |
| COC(=O)N[C@H]1CCC[C@@H]1[C@](CN1CCC1)(c1cccc(F)c1)C1CCN(CC2CN(c3ccc(S(=O)(=O)C4CN(C(=O)/C=C/CN5CCC(O)CC5)C4)cc3)C2)CC1 [compound 98] | < 10 | – |
| CC#CC(=O)N1CC[C@@H](S(=O)(=O)c2ccc(N3CC(O)(CN4CCC([C@@](CN5CCC5)(c5cccc(F)c5)[C@H]5CCC[C@@H]5NC(=O)OC)CC4)C3)c(F)c2)C1 [compound 202] | < 10 | – |
| C=CC(=O)N1CCC(S(=O)(=O)c2ccc(N3CC(F)(CN4CCC([C@@](CN5CCC5)(c5cccc(F)c5)[C@H]5CCC[C@@H]5NC(=O)OC)CC4)C3)c(F)c2)C1 (stereo partly drawn) [compound 107] | – | < 500 |
| C=CC(=O)Nc1cncc(S(=O)(=O)c2ccc(N3CC(CN4CCC([C@@](CN5CCC5)(c5cccc(F)c5)[C@H]5CCC[C@@H]5NC(=O)OC)CC4)C3)cc2)c1 [compound 79] | < 50 | – |
